Data published in patent publication US9751854B2 (Millennium Pharmaceuticals, Inc., priority 2014, dated 2017).

Molecular target: human VPS34 (Homo sapiens (Human), UniProt Q8NEB9)
Assay: Human VPS34 enzyme assay (Adapta TR-FRET ADP detection)
Assay type: biochemical
Parameters: Percent Inhibition: dose or concentration left out as unconfirmed
Conditions: for IC50: IC50 range class

human VPS34, sequence (Q8NEB9 whole entry): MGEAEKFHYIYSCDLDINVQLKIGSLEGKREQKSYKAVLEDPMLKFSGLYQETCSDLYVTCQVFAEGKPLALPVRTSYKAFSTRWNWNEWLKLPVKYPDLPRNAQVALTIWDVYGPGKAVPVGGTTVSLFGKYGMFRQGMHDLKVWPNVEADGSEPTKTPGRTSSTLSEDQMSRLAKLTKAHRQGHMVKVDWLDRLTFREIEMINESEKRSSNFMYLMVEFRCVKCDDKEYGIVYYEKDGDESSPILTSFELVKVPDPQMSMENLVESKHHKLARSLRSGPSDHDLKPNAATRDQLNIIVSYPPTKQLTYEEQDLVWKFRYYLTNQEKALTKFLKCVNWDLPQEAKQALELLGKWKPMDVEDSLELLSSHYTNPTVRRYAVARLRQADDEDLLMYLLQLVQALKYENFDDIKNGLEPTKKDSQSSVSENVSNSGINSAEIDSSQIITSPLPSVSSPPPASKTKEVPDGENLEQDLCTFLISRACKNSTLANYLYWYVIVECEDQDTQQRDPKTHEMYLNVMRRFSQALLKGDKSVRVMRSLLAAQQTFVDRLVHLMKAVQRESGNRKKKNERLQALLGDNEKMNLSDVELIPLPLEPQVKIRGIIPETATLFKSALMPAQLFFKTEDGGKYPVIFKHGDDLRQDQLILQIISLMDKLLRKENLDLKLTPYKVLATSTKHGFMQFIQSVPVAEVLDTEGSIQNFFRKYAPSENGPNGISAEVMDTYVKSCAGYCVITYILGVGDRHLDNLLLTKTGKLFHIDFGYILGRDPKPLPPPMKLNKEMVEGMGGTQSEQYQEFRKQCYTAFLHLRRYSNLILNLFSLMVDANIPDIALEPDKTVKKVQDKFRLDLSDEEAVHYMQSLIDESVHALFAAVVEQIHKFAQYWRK

SMILES | IC50 [nM] | Percent Inhibition [%]
Cc1ncc(-c2ccnc(NC(=O)OCC3(C)COC3)c2)cc1NS(=O)(=O)c1ccc(F)cc1F [Compound I-324, (3-methyloxetan-3-yl)methyl (5-{[(2,4-difluorophenyl)sulfonyl]amino}-6-methyl-3,4′-bipyridin-2′-yl)carbamate] | 10 to 50 | –
CC(=O)Nc1cc(-c2cnc(N)c(C(=O)N3CCN(C)CC3)c2)ccn1 [Compound I-79, N-[6-amino-5-[(4-methylpiperazin-1-yl)carbonyl]-3,4′-bipyridin-2′-yl}acetamide] | 10 to 50 | –
CC(=O)Nc1cc(-c2cnc(Cl)c(NS(=O)(=O)c3ccccc3)c2)c(C)cn1 [Compound I-56, N-{6-chloro-5′-methyl-5-[(phenylsulfonyl)amino]-3,4′-bipyridin-2′-yl]acetamide] | 10 to 50 | –
Cc1ncc(-c2ccnc(NC(=O)C3CC3)c2)cc1NS(=O)(=O)N(C)C [Compound I-311, N-{5-[(dimethylsulfamoyl)amino]-6-methyl-3,4′-bipyridin-2′-yl)cyclopropanecarboxamide] | < 10 | –
CC(=O)Nc1cc(-c2cnc(N)c(C(=O)N3CCCC3)c2)ccn1 [Compound I-15, N-[6-amino-5-(pyrrolidin-1-ylcarbonyl)-3,4′-bipyridin-2′-yl]acetamide] | 10 to 50 | –
Cc1ncc(-c2ccnc(NC(=O)C3CC3(F)F)c2)cc1NS(=O)(=O)N(C)C (single isomer, unassigned) [Compound I-498] | 10 to 50 | 83
CC(=O)Nc1cc(-c2cncc(NS(=O)(=O)c3ccc(F)cc3F)c2)ccn1 [Compound I-12, N-(5-{[(2,4-difluorophenyl)sulfonyl]amino}-3,4′-bipyridin-2′-yl)acetamide] | < 10 | –
Cc1ncc(-c2ccnc(NC(=O)C3CC3(F)F)c2)cc1NS(=O)(=O)c1ccc(F)cc1F (single isomer, unassigned) [Compound I-267b, N-(5-{[(2,4-difluorophenyl)sulfonyl]amino}-6-methyl-3,4′-bipyridin-2′-yl)-2,2-difluorocyclopropanecarboxamide] | 10 to 50 | 94
CC(=O)Nc1cc(-c2cnc3c(c2)S(=O)(=O)N[C@@H](c2ccccc2)CO3)ccn1 [Compound I-334, (S)-N-[4-(1,1-dioxido-3-phenyl-3,4-dihydro-2H-pyrido[2,3-b][1,4,5]oxathiazepin-8-yl)pyridin-2-yl]acetamide] | > 100 | –
COC(=O)Nc1cc(-c2cnc(C)c(N3CCCS3(=O)=O)c2)ccn1 [Compound I-146, methyl [5-(1,1-dioxidoisothiazolidin-2-yl)-6-methyl-3,4′-bipyridin-2′-yl]carbamate] | 10 to 50 | –
CC(=O)Nc1cc(-c2cnc(N)c(S(=O)(=O)Nc3ccc(Cl)cc3)c2)ccn1 [Compound I-207, N-{6-amino-5-[(4-chlorophenyl)sulfamoyl]-3,4′-bipyridin-2′-yl}acetamide] | < 10 | –
CC(=O)Nc1cc(-c2cnc(Cl)c(NS(=O)(=O)c3ccccc3Cl)c2C)ccn1 [Compound I-240, N-(6-chloro-5-{[(2-chlorophenyl)sulfoayl]amino}-4-methyl-3,4′-bipyridin-2′-yl)acetamide] | 10 to 50 | –
CNc1ncc(-c2ccnc(NC(C)=O)c2)cc1C(=O)N(C)C [Compound I-22, 2′-acetamido-N,N-dimethyl-6-(methylamino)-3,4′-bipyridine-5-carboxamide] | 10 to 50 | –
CC(=O)Nc1cc(-c2cnc(N)c(S(=O)(=O)N(C)CC3CC3)c2)ccn1 [Compound I-110, N-{6-amino-5-[(cyclopropylmethyl)(methyl)sulfamoyl]-3,4′-bipyridin-2′-yl}acetamide] | < 10 | –
CC(=O)Nc1cc(-c2cnc3[nH]cc(CN(C)C)c3c2)ccn1 [Compound I-85, N-(4-{3-[(dimethylamino)methyl]-1H-pyrrolo[2,3-b]pyridin-5-yl}pyridin-2′-yl)acetamide] | > 100 | –
CC(=O)Nc1cc(-c2cnc(C)c(NS(=O)(=O)c3cccc(F)c3)c2)ccn1 [Compound I-155, N-(5-{[(3-fluorophenyl)sulfonyl]amino}-6-methyl-3,4′-bipyridin-2′-yl)acetamide] | < 10 | –
Cc1ncc(-c2ccnc(Nc3ccnc(C(F)(F)F)n3)c2)cc1C(=O)N1CCC1 [Compound I-292, azetidin-1-yl(6-methyl-2′-[(2-(trifluoromethyl)pyrimidin-4-yl]amino}-3,4′-bipyridin-5-yl)methanone] | 10 to 50 | –
Cc1ncc(-c2ccnc(NC(=O)OCc3ccn(C)n3)c2)cc1NS(=O)(=O)c1ccc(F)cc1F [Compound I-326, (1-methyl-1H-pyrazol-3-yl)methyl (5-{[(2,4-difluorophenyl)sulfonyl]amino}-6-methyl-3,4′-bipyridin-2′-yl)carbamate] | < 10 | –
CC(=O)Nc1cc(-c2cnc3[nH]ccc3c2)ccn1 [Compound I-140, N-[4-(1H-pyrrolo[2,3-b]pyridin-5-yl)pyridin-2-yl]acetamide] | 10 to 50 | –
COc1nccc(Nc2cc(-c3cncc(C(=O)N(C)C45CC(C4)C5)c3)ccn2)n1 [Compound I-245, N-(bicyclo[1.1.1]pent-1-yl)-2′-[(2-methoxypyrimidin-4-yl)amino]-N-methyl-3,4′-bipyridine-5-carboxamide] | 10 to 50 | –

SMILES | IC50 [nM] | Percent Inhibition [%]
CC(=O)Nc1cc(-c2cnc(C)c(NS(=O)(=O)c3ccc(F)cc3F)c2)cc(C)n1 [Compound I-414, N-(5-{[(2,4-difluorophenyl)sulfonyl]amino}-6,6′-dimethyl-3,4′-bipyridin-2′-yl)acetamide] | 50 to 100 | –
CC(=O)Nc1cc(-c2cncc(S(=O)(=O)N3CCCC3)c2)ccn1 [Compound I-47, N-[5-(pyrrolidin-1-ylsulfonyl)-3,4′-bipyridin-2′-yl]acetamide] | 10 to 50 | –
CC(=O)Nc1cc(-c2cnc(C)c(NS(=O)(=O)N3CCC3)c2)ccn1 [Compound I-257, N-{5-[(azetidin-1-ylsulfonyl)amino]-6-methyl-3,4′-bipyridin-2′-yl}acetamide] | 10 to 50 | –
CC(=O)Nc1cc(-c2cncc(S(=O)(=O)NC3CC3)c2)ccn1 [Compound I-338] | 10 to 50 | –
CNc1c(Cl)ncc(-c2ccnc(Nc3ccnc(C)n3)c2)c1C [Compound I-256, 6-chloro-N-5-4-dimethyl-N-2-(2-methylpyrimidin-4-yl)-3,4′-bipyridine-2′,5-diamine] | 10 to 50 | –
CC(=O)Nc1cc(-c2cncc(S(=O)(=O)N3CCC(F)(F)CC3)c2)ccn1 [Compound I-9, N-{5-[(4,4-difluoropiperidin-1-yl)sulfonyl]-3,4′-bipyridin-2′-yl}acetamide] | 10 to 50 | –
CC(=O)Nc1cc(-c2cnc(N)c(S(=O)(=O)Nc3ccc(F)cc3F)c2)ccn1 [Compound I-170, N-{6-amino-5-[(2,4-difluorophenyl)sulfamoyl]-3,4′-bipyridin-2′-yl}acetamide] | < 10 | –
CNc1ncc(-c2ccnc(NC(C)=O)c2)cc1S(=O)(=O)Nc1ccc(F)cc1F [Compound I-63, N-{5-[(2,4-difluorophenyl)sulfamoyl]-6-(methylamino)-3,4′-bipyridin-2′-yl}acetamide] | < 10 | –
CC(=O)Nc1cc(-c2cnc(Cl)c(NS(=O)(=O)N3CCCC3)c2C)ccn1 [Compound I-488, N-{6-chloro-4-methyl-5-[(pyrrolidin-1-ylsulfonyl)amino]-3,4′-bipyridin-2′-yl}acetamide] | 10 to 50 | –
Cc1nccc(Nc2cc(-c3cnc(Cl)c(NS(=O)(=O)c4ccc(F)cc4F)c3C)c(F)cn2)n1 [Compound I-294, N-{6-chloro-5′-fluoro-4-methyl-2′-[(2-methylpyrimidin-4-yl)amino]-3,4′-bipyridin-5-yl}-2,4-difluorobenzenesulfonamide] | < 10 | –
CC(=O)Nc1cc(-c2cnc(C)c(NS(=O)(=O)c3cc(Cl)sc3Cl)c2)ccn1 [Compound I-465, N-[5-{[(2,5-dichloro-3-thienyl)sulfonyl]amino}-6-methyl-3,4′-bipyridin-2′-yl)acetamide] | 10 to 50 | –
Cc1nccc(Nc2cc(-c3cnc(N(C)C)c(C(=O)N(C)C45CC(C4)C5)c3)ccn2)n1 [Compound I-306, N-(bicyclo[1.1.1]pent-1-yl)-6-(dimethylamino)-N-methyl-2′-((2-methylpyrimidin-4-yl)amino)-3,4′-bipyridine-5-carboxamide] | 10 to 50 | –
CC(=O)Nc1cc(-c2cnc(C)c(NS(=O)(=O)c3ccccc3F)c2)ccn1 [Compound I-144, N-[5-{[(2-fluorophenyl)sulfonyl]amino}-6-methyl-3,4′-bipyridin-2′-yl)acetamide] | < 10 | –
CC(=O)Nc1cc(-c2cncc(NS(=O)(=O)N(C)C)c2)ccn1 [Compound I-348, N-{5-[(dimethylsulfamoyl)amino]-3,4′-bipyridin-2′-yl}acetamide] | 10 to 50 | –
CC(=O)Nc1cc(-c2cnc(Cl)c(S(=O)(=O)NC3CCC3)c2)ccn1 [Compound I-438, N-[6-chloro-5-(cyclobutylsulfamoyl)-3,4′-bipyridin-2′-yl]acetamide] | 10 to 50 | –
CC(=O)Nc1cc(-c2cnc(N)c(S(=O)(=O)NCCc3ccccc3)c2)ccn1 [Compound I-148, N-{6-amino-5-[(2-phenylethyl)sulfamoyl]-3,4′-bipyridin-2′-yl}acetamide] | 10 to 50 | –
Cc1nccc(Nc2cc(-c3cnc(C)c(C(=O)N4CC(C)(C)C4)c3)ccn2)n1 [Compound I-495, (3,3-dimethylazetidin-1-yl){6-methyl-2′-[(2-methylpyrimidin-4-yl)amino]-3,4′-bipyridin-5-yl}methanone] | 10 to 50 | –
Cc1c(-c2ccnc(Nc3ccnc(C4CC4)n3)c2)cnc(Cl)c1C(=O)N1CCC1 [Compound I-361, azetidin-1-yl(6-chloro-2′-((2-cyclopropylpyrimidin-4-yl)amino)-4-methyl-[3,4′-bipyridin]-5-yl)methanone] | 10 to 50 | –
Cc1ncc(-c2ccnc(Nc3ccc(C#N)cn3)c2)cc1NS(=O)(=O)c1ccc(F)cc1F [Compound I-228, N-{2′-[(5-cyanopyridin-2-yl)amino]-6-methyl-3,4′-bipyridin-5-yl}-2,4-difluorobenzenesulfonamide] | < 10 | –
CC(=O)Nc1cc(-c2cnc(Cl)c(NS(=O)(=O)c3ccccc3F)c2C)ccn1 [Compound I-251, N-(6-chloro-5-{[(2-fluorophenyl)sulfonyl]amino}-4-methyl-3,4′-bipyridin-2′-yl)acetamide] | 10 to 50 | –
